According to the supplement of paper PMC10883282:

Assays:
Experiment in all cases: relative viability vs DMSO control (72 h) (fraction); higher = more viable cells
SK-ES-1 = test system: SK-ES-1
Method in brief: (§1)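 Serially diluted compound, 2.5 µl from source plates spanning 10 mM to 0.0002 mM, was added 24 h after sarcoma cell lines were seeded in 384-well plates at densities targeting 80–90% confluence. Plates then sat 72 h at 37 °C, 5% CO2, with 0.1% DMSO vehicle and a 5 µM positive control. Relative viability came from ATPLite as percent growth, averaged over up to triplicate wells, and was rescaled with 1 as full and 0 as none.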

RD = test system: RD
Method in brief: as §1

SYO-1 = test system: SYO-1
Method in brief: as §1

HT1080 = test system: HT1080
Method in brief: as §1

SK-LMS-1 = test system: SK-LMS-1
Method in brief: as §1

MES-SA = test system: MES-SA
Method in brief: as §1

G401 = test system: G401
Method in brief: as §1

SW1353 = test system: SW1353
Method in brief: as §1

KHOS-240S = test system: KHOS-240S
Method in brief: as §1

SW982 = test system: SW982
Method in brief: as §1

RD-ES = test system: RD-ES
Method in brief: as §1

VA-ES-BJ = test system: VA-ES-BJ
Method in brief: as §1

Cn1cnc2c(F)c(Nc3ccc(Br)cc3Cl)c(C(=O)NOCCO)cc21 [Selumetinib]
Settings	relative viability
G401, 0.00017 µM	0.994
G401, 0.00051 µM	0.962
G401, 0.00152 µM	0.959
G401, 0.00457 µM	0.935
G401, 0.01372 µM	0.949
G401, 0.04115 µM	0.926
G401, 0.1235 µM	0.882
G401, 0.3704 µM	0.838
G401, 1.111 µM	0.78
G401, 3.333 µM	0.719
G401, 10 µM	0.627
HT1080, 0.00017 µM	0.96
HT1080, 0.00051 µM	0.97
HT1080, 0.00152 µM	0.974
HT1080, 0.00457 µM	0.9799
HT1080, 0.01372 µM	0.927
HT1080, 0.04115 µM	0.855
HT1080, 0.1235 µM	0.805
HT1080, 0.3704 µM	0.6793
HT1080, 1.111 µM	0.602
HT1080, 3.333 µM	0.491
HT1080, 10 µM	0.462
KHOS-240S, 0.00017 µM	1.03
KHOS-240S, 0.00051 µM	1.03
KHOS-240S, 0.00152 µM	1.01
KHOS-240S, 0.00457 µM	0.999
KHOS-240S, 0.01372 µM	0.959
KHOS-240S, 0.04115 µM	0.949
KHOS-240S, 0.1235 µM	0.91
KHOS-240S, 0.3704 µM	0.8785
KHOS-240S, 1.111 µM	0.864
KHOS-240S, 3.333 µM	0.782
KHOS-240S, 10 µM	0.723
MES-SA, 0.00017 µM	0.871
MES-SA, 0.00051 µM	0.89
MES-SA, 0.00152 µM	0.855
MES-SA, 0.00457 µM	0.862
MES-SA, 0.01372 µM	0.847
MES-SA, 0.04115 µM	0.844
MES-SA, 0.1235 µM	0.754
MES-SA, 0.3704 µM	0.779
MES-SA, 1.111 µM	0.76
MES-SA, 3.333 µM	0.741
MES-SA, 10 µM	0.694
RD, 0.00017 µM	1.06
RD, 0.00051 µM	1.04
RD, 0.00152 µM	1.04
RD, 0.00457 µM	0.977
RD, 0.01372 µM	0.931
RD, 0.04115 µM	0.875
RD, 0.1235 µM	0.749
RD, 0.3704 µM	0.703
RD, 1.111 µM	0.632
RD, 3.333 µM	0.593
RD, 10 µM	0.543
RD-ES, 0.00017 µM	0.958
RD-ES, 0.00051 µM	0.942
RD-ES, 0.00152 µM	0.95
RD-ES, 0.00457 µM	0.985
RD-ES, 0.01372 µM	0.973
RD-ES, 0.04115 µM	0.965
RD-ES, 0.1235 µM	0.927
RD-ES, 0.3704 µM	0.942
RD-ES, 1.111 µM	0.935
RD-ES, 3.333 µM	0.933
RD-ES, 10 µM	0.855
SK-ES-1, 0.00017 µM	0.944
SK-ES-1, 0.00051 µM	0.961
SK-ES-1, 0.00152 µM	0.951
SK-ES-1, 0.00457 µM	0.956
SK-ES-1, 0.01372 µM	0.951
SK-ES-1, 0.04115 µM	0.929
SK-ES-1, 0.1235 µM	0.932
SK-ES-1, 0.3704 µM	0.925
SK-ES-1, 1.111 µM	0.925
SK-ES-1, 3.333 µM	0.925
SK-ES-1, 10 µM	0.87
SK-LMS-1, 0.00017 µM	0.942
SK-LMS-1, 0.00051 µM	0.955
SK-LMS-1, 0.00152 µM	0.953
SK-LMS-1, 0.00457 µM	0.945
SK-LMS-1, 0.01372 µM	0.875
SK-LMS-1, 0.04115 µM	0.708
SK-LMS-1, 0.1235 µM	0.6
SK-LMS-1, 0.3704 µM	0.601
SK-LMS-1, 1.111 µM	0.5484
SK-LMS-1, 3.333 µM	0.491
SK-LMS-1, 10 µM	0.37
SW982, 0.00017 µM	1.01
SW982, 0.00051 µM	1.01
SW982, 0.00152 µM	1.02
SW982, 0.00457 µM	1.01
SW982, 0.01372 µM	0.99
SW982, 0.04115 µM	0.956
SW982, 0.1235 µM	0.9336
SW982, 0.3704 µM	0.902
SW982, 1.111 µM	0.876
SW982, 3.333 µM	0.835
SW982, 10 µM	0.804
SW1353, 0.00017 µM	0.917
SW1353, 0.00051 µM	0.894
SW1353, 0.00152 µM	0.918
SW1353, 0.00457 µM	0.892
SW1353, 0.01372 µM	0.815
SW1353, 0.04115 µM	0.782
SW1353, 0.1235 µM	0.75
SW1353, 0.3704 µM	0.709
SW1353, 1.111 µM	0.724
SW1353, 3.333 µM	0.674
SW1353, 10 µM	0.652
SYO-1, 0.00017 µM	0.937
SYO-1, 0.00051 µM	0.931
SYO-1, 0.00152 µM	0.9523
SYO-1, 0.00457 µM	0.9263
SYO-1, 0.01372 µM	0.8956
SYO-1, 0.04115 µM	0.869
SYO-1, 0.1235 µM	0.829
SYO-1, 0.3704 µM	0.805
SYO-1, 1.111 µM	0.778
SYO-1, 3.333 µM	0.733
SYO-1, 10 µM	0.695
VA-ES-BJ, 0.00017 µM	0.9961
VA-ES-BJ, 0.00051 µM	0.992
VA-ES-BJ, 0.00152 µM	0.985
VA-ES-BJ, 0.00457 µM	0.964
VA-ES-BJ, 0.01372 µM	0.947
VA-ES-BJ, 0.04115 µM	0.877
VA-ES-BJ, 0.1235 µM	0.8465
VA-ES-BJ, 0.3704 µM	0.836
VA-ES-BJ, 1.111 µM	0.808
VA-ES-BJ, 3.333 µM	0.78
VA-ES-BJ, 10 µM	0.742
